Where “and” joins values, the source holds several entries; their conditions need not be identical. Equal values may be shown once. Entries after “also recorded” stand apart in the source; their conditions may differ.
Tests used:
[1] = test system: ICR-CD1 mice; experiment: Acute toxicity study i.p. (MTD, biochemistry, histopathology); type: in vivo; set-up: key to prostration / tremor / convulsions / hyper/hypoventilation / drop of eyelids / ataxia / stooped posture: mild (+); moderate (++); severe (+++); conditions: for stooped posture: Female 1
Method: (§1) Toxicology and pharmacokinetic in vivo study
(§2) ICR-CD1 mice weighing 20–25 g were purchased from Velaz (Prague, Czech Republic).
(§3) They were kept in an air-conditioned room with the light from 07:00 to 19:00 hours and were allowed access to standard food and tap water ad libitum. The mice were divided into groups […]
(§4) Ethical approval statement
(§5) The experimental animals were handled under the supervision of the Ethics Committee of the […]
(§6) 706288/2023-1457) and the treatment of animals was in full accordance with ethical standards laid down in respective Czech and EU regulations.
(§7) Design of in vivo experiments
(§8) Acute toxicity study – Maximal tolerated dose, biochemical analysis, and histopathologic […]
(§9) Mice (ICR-CD1, Velaz, Prague, Czech Republic) were randomly assigned to the experimental groups of two males and two females per one applied dose of 6. 6 was administered intraperitoneally (i.p., 0.1 mL/10 g of animal weight; 1% Tween 80). Several doses were administered to identify the toxic profile of tested compounds and establish the Maximal Tolerated Dose (MTD, i.p.). Treated animals were intensively observed for signs of toxicity, such as respiratory, cardiovascular, and nervous system disability. Weight loss or reduced food consumption was assessed according to the FELASA classification[39] in the first two hours and then periodically for the subsequent 46 hours. The toxicity signs were classified according to a previously published study.[40]
(§10) All animals surviving the 48 hours were deeply euthanized by CO2 and subjected to basic macroscopic necropsy. The blood was collected for biochemical analysis, and selected organs (kidney and liver) were collected for histopathologic examination.
(§11) Venous blood was collected into heparinized tubes (Scanlab Systems, Prague, Czech Republic). Plasma was subsequently separated (3,000 × g for 10 min, 4 °C) using centrifuge U-320R (Boeco, Hamburg, Germany). The concentration of urea and creatinine and the activity of alanine aminotransferase (ALT), aspartate aminotransferase (AST), alkaline […]
(§12) phosphatase (ALP), amylase, and lactate dehydrogenase (LDH) were measured in the accredited biochemical laboratory of the Department of Clinical Biochemistry and Diagnostics, University Hospital, Hradec Kralove, Czech Republic. Statistical data analysis was performed through IBM SPSS Statistics version 26 (IBM, Armonk, NY, USA) using the Kolmogorov-Smirnov and Shapiro-Wilk tests to test data normality. Due to normally distributed data, the Student´s t-test was used to assess the differences compared with the control group (p ≤ 0.05).
(§13) Samples of the liver and kidney were used for standard histopathological examination. Organs were fixed with 10% neutral buffered formalin (Bamed s.r.o., Ceske Budejovice, Czech Republic), histologically processed, and stained with hematoxylin and eosin (both Merck) according to Pejchal et al.[41] The histopathological changes were evaluated using a BX-51 microscope (Olympus, Tokyo, Japan). […]
(§14) The time intervals
(§15) PK studies). The samples were centrifuged at 3,000 × g for 10 min (10 °C), and the plasma samples were stored at -80 °C until the HPLC analysis.

[2] = as above; type: in vivo, mice; set-up: key to prostration / tremor / convulsions / hyper/hypoventilation / drop of eyelids / ataxia / stooped posture: mild (+); moderate (++); severe (+++); conditions: both sexes, ICR-CD1, mouse, in vivo, ip, male and female mice; read-out: maximal tolerated dose (MTD)
Method: as §1, §2, §3, §4, §5, §6, §7, §8, §9, §10, §11, §12, §13, §14, §15

[3] = target: T1, human butyrylcholinesterase (hBuChE) (Homo sapiens, UniProt P06276); experiment: biochemical; conditions: means±SEM of at least three experiments
T1 construct: from human plasma was from Vivonics (Bedford, MA, USA); purchased Vivonics (Bedford, MA, USA); host or cells: human plasma
T1 sequence (P06276 29-602): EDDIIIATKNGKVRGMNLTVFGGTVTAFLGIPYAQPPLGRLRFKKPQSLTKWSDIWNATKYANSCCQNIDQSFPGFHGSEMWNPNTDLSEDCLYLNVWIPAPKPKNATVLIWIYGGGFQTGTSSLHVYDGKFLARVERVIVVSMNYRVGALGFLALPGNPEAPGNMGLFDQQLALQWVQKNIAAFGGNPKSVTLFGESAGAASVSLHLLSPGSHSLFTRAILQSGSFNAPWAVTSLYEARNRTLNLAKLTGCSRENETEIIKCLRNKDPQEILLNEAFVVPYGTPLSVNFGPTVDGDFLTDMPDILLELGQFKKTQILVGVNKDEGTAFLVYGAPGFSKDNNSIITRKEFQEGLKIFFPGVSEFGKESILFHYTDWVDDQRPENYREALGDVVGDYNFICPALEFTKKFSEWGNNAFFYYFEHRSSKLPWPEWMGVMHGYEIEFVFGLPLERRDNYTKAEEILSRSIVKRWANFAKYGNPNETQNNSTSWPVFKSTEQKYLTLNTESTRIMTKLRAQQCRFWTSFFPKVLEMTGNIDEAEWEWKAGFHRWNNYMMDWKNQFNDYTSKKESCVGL

[4] = 20 mg/kg i.p., Male 1, Female 1, Female 2
[5] = 40 mg/kg i.p., Male 1, Female 1, Female 2
[6] = 60 mg/kg i.p., Male 1, Male 2, Female 2
[7] = female mice, 10 mg/kg, Female 1, Female 2
[8] = female mice, 20 mg/kg, Female 1, Female 2
[9] = female mice, 40 mg/kg, Female 1, Female 2
[10] = female mice, 60 mg/kg, Female 1, Female 2
[11] = male mice, 10 mg/kg i.p., Male 1, Male 2
[12] = male mice, 20 mg/kg i.p., Male 1
[13] = male mice, 20 mg/kg i.p., Male 1, Male 2
[14] = male mice, 40 mg/kg i.p., Male 1, Male 2
[15] = male mice, 60 mg/kg i.p., Male 1, Male 2
[16] = male mice, 60 mg/kg i.p., Male 1, Male 2, 60 mg/kg

## O[C@H](CNCC1CC1)[C@H](Cc1ccccc1)NC1c2ccccc2-c2ccccc21 [Compound 6]
[1]; 10 mg/kg i.p.
  signs of poisoning at MTD: mild to moderate signs of poisoning may occur
[1]; 10 mg/kg i.p., 48 h
  ALP, plasma: 68.4 ± 27.2 U/L
  ALT, plasma: 29.0 ± 6.5 U/L
  AST, plasma: 56.8 ± 6.6 U/L
  Amylase, plasma: 2960 ± 500 U/L and 2955 ± 501 U/L
  LDH, plasma: 275 ± 94 U/L
  Urea, plasma: 33.8 ± 8.2 mg/dL
[1]; 10 mg/kg i.p., 48 h, Student's t-test
  blood biochemistry vs control: No significant differences
[1]; 10 mg/kg i.p., 48 h, table lines in order Male 1, Male 2, Female 1, Female 2
  Necropsy: no macroscopic pathology; also recorded: no findings; also recorded: mild hyperemia in the peritoneal cavity
[1]; 10 mg/kg i.p., table lines in order Male 1, Male 2, Female 1, Female 2
  Histopathological findings, liver and renal tissue: no tissue damage; also recorded: dg: mild peritoneal irritation; also recorded: no findings
[1]; 20 mg/kg i.p., N = 3
  ALP, plasma: 60.4 ± 28.6 U/L
  ALT, plasma: 27.0 ± 15.6 U/L
  AST, plasma: 55.6 ± 6.7 U/L
  Amylase, plasma: 3129 ± 444 U/L
  LDH, plasma: 223 ± 38 U/L
  Urea, plasma: 31.8 ± 6.7 mg/dL
[1]; [4]
  Histopathological findings, liver and renal tissue: dg: peritonitis
  Necropsy: moderate hyperemia in the abdominal cavity
[1]; 40 mg/kg i.p., N = 3
  ALP, plasma: 63.5 ± 26.9 U/L
  ALT, plasma: 57.1 ± 16.5 U/L
  AST, plasma: 82.4 ± 54.0 U/L
  Amylase, plasma: 3485 ± 894 U/L
  LDH, plasma: 511 ± 423 U/L
  Urea, plasma: 93.6 ± 60.4 mg/dL
[1]; [5]
  Histopathological findings, liver and renal tissue: dg: severe peritonitis
  Necropsy: dilatation of small and large intestine loops; also recorded: dilatation of the stomach, small and large
[1]; 60 mg/kg i.p., N = 3
  ALP, plasma: 71.4 ± 23.4 U/L
  ALT, plasma: 230.4 ± 140.7 U/L
  AST, plasma: 318.0 ± 213.7 U/L
  Amylase, plasma: 3723 ± 448 U/L
  LDH, plasma: 1101 ± 562 U/L
  Urea, plasma: 142.9 ± 145.2 mg/dL
[1]; [6]
  Histopathological findings, liver and renal tissue: dg: severe peritonitis
  Necropsy: dilatation of small and large intestine loops
[1]; female mice, 10 mg/kg i.p., lines in order Female 1, Female 2
  hyper/hypoventilation: +
[1]; [7]
  drop of eyelids: +
  prostration: +
  tremor: + and ++
[1]; female mice, 10 mg/kg, Female 2
  convulsions: +
[1]; female mice, 20 mg/kg
  stooped posture: +
[1]; [8]
  drop of eyelids: +
  hyper/hypoventilation: +
  prostration: ++
  tremor: + and ++
  weight at 24 h (%): -4.2% and -1.8%
  weight at 48 h (%): -6.5% and 0.0%
[1]; [9]
  drop of eyelids: +
  hyper/hypoventilation: ++
  tremor: +
  weight at 24 h (%): -4.5% and -3.5%
  weight at 48 h (%): -9.1% and -7.1%
[1]; female mice, 60 mg/kg
  stooped posture: +
[1]; [10]
  drop of eyelids: +
  hyper/hypoventilation: ++
  tremor: +
  weight at 24 h (%): -5.0% and -6.6%
[1]; female mice, 60 mg/kg, Female 1, before the 48-hour check-up
  mortality: died overnight
[1]; female mice, 60 mg/kg, Female 2
  weight at 48 h (%): -7.5%
[1]; [11]
  prostration: +
  tremor: +
[1]; male mice, 10 mg/kg i.p., lines in order Male 1, Male 2
  hyper/hypoventilation: +
[1]; [12]
  weight at 24 h (%): -0.2%
  weight at 48 h (%): +1.0%
[1]; [13]
  ataxia: +
  drop of eyelids: +
  hyper/hypoventilation: +
  prostration: ++
  tremor: +
[1]; male mice, 20 mg/kg i.p., Male 2
  convulsions: +++
[1]; male mice, 20 mg/kg i.p., Male 2, before the 24-hour check-up
  mortality: died overnight
[1]; male mice, 40 mg/kg i.p., Male 1
  weight at 48 h (%): -6.7%
[1]; [14]
  drop of eyelids: +
  hyper/hypoventilation: ++
  prostration: ++
  tremor: +
[1]; male mice, 40 mg/kg i.p., Male 1, Male 2, 40 mg/kg
  weight at 24 h (%): -6.1% and -7.0%
[1]; male mice, 40 mg/kg i.p., Male 2, before the 48-hour check-up
  mortality: died overnight
[1]; male mice, 60 mg/kg i.p., Male 1
  ataxia: +
[1]; [15]
  drop of eyelids: +
  hyper/hypoventilation: ++
  prostration: +++
  tremor: +
[1]; [16]
  weight at 24 h (%): -3.6% and -10.5%
  weight at 48 h (%): -16.0% and -15.6%
[2]
  MTD at 48 h: 10 mg/kg
[3]
  IC50: 210 ± 10 nM

— PMC11796312, “Multifunctional, Fluorene‐Based Modulator of Cholinergic and GABAergic Neurotransmission as a Novel Drug Candidate for Palliative Treatment of Alzheimer's Disease” (Angewandte Chemie (International Ed. in English), 2024)
